Experimental data as given in ChEMBL document CHEMBL1150619, “Minor steroidal alkaloids from the marine sponge Corticium sp” (J Nat Prod, 2002).
Converted amounts (≈) assume the structure as drawn.

Key:
[1] = test system: C6; assay: Cytotoxicity against rat C6 cells assessed as cell viability after 24 hrs by MTT assay; format: functional, cell-based; conditions: C6, 24 h
[2] = Cytotoxicity against mouse RAW264 cells assessed as cell viability after 24 hrs by MTT assay; format: functional, cell-based
[3] = Mus musculus, RAW264.7, 24 h, read-out: IC50

Compound | IC50 [1] [µg/mL] | IC50 [2, 3] [µg/mL] | IC50 ([2]; raw264)
CC1=C(/C=C/[C@@H](C)[C@H]2CC[C@H]3C4=CC[C@H]5[C@H](O)[C@H](N)CC[C@]5(C)[C@H]4CC[C@]23C)CCN(C)C1 [4ALPHA-HYDROXYDEMETHYLPLAKINAMINE B] | 26.1 (≈ 57.7 µM) | 16.2 (≈ 35.8 µM) | 
CC(C)C1=CC(=O)N/C1=C\[C@@H](C)[C@H]1CC[C@H]2C3=CC[C@H]4C[C@H](N)CC[C@]4(C)[C@H]3CC[C@]12C [PLAKINAMINE G] | 6.8 (≈ 15.6 µM) |  | Not Active
CC1=C(/C=C/[C@@H](C)[C@H]2CC[C@H]3C4=CC[C@H]5C(=O)[C@@H](N(C)C)CC[C@]5(C)[C@H]4CC[C@]23C)CCNC1 [PLAKINAMINE H] | 9 (≈ 19.4 µM) | 61 (≈ 131 µM) | 
CC(C)C1CCNC1C[C@@H](C)[C@H]1CC[C@H]2C3=CC[C@H]4C[C@H](N)CC[C@]4(C)[C@H]3CC[C@]12C (stereo partly drawn) [TETRAHYDROPLAKINAMINE A] | 1.4 (≈ 3.28 µM) |  | Not Active
